The source made the active and inactive calls.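 Rule for the calls: active = AC50 no more than tenfold above the top dose tested, or full inhibition at every dose with a flat fit (cut at about 19 µM in these data); inconclusive = flat curve fit with inhibition between 30% and 70%, or poor fit; inactive = AC50 more than tenfold above the top dose tested.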 Bounds are passed on as bounds.

The term AC50 denotes the midpoint of the concentration-response curve, whichever way the signal moves.

The assay relates to HMLE_sh_eGFP viability, CellTiter-Glo luminescence, 72 h. Description: viability loss of HMLE_sh_eGFP cells – cell-based, luminescence, counter-screen for HMLE_sh_ECad selective toxicity project, dose response (AID 463074).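 Note: counterscreen control line to flag general toxicity for the HMLE_sh_ECad screen; potency for loss of viability as luminescence drops below DMSO wells.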 In general terms: The purpose of a counterscreen is to sort out artefacts and off-target activity.
With `CCCCN(C)c1nc(-c2ccco2)c2c(c1C#N)CC(C)(C)OC2`, the AC50 is 11.7 µM.
With `O=[N+]([O-])/C=C/c1cn(Cc2ccc(Cl)cc2)c2ccccc12`, the AC50 is 2.2 µM.
As to `Cc1cc([N+](=O)[O-])nn1Cc1ccc(C(=O)N/N=C/c2ccc(O)cc2O)cc1`, the AC50 was 2.25 µM.
With `CCn1c2ccccc2c2cc(NC(=O)c3cccc([N+](=O)[O-])c3)ccc21`, the AC50 is 3.63 µM.
Take `CCN1C(=O)C(CC(=O)Nc2ccc(OC)cc2)N(CCCN2CCN(c3ccc(F)cc3)CC2)C1=S` (stereo unspecified): the AC50 is 7.04 µM.
As for `Cc1cc(Nc2ccccc2)nc(-c2ccccc2O)n1`, the figure is 7.92 µM; as for `COc1ccc(-n2nc3c(N4CCC(C(=O)NCCc5ccccc5C)CC4)nnc(C)c3c2C)cc1`, 4.85 µM; as for `O=[N+]([O-])c1ccc(N/N=C/c2c[nH]c3ccccc23)c(S(=O)(=O)Nc2ccc(Cl)cc2)c1`, 1.66 µM.
`Cc1ccc(NS(=O)(=O)c2ccc(Cl)c(NC(=S)NC(=O)C3CCCCC3)c2)cc1Cl`: the AC50 is 3.58 µM.
For the compound `COc1ccc2sc(-c3ccccc3OC)c(-c3ccc(O)cc3)c2c1`, the AC50 was 6.71 µM.
As to `O=C(N/N=C/c1cc(Cl)ccc1O)C(=O)Nc1ccccc1OC(F)(F)C(F)F`, the half-maximal activity concentration (AC50) is 3.9 µM.
Next, `CSc1ccc2c(c1)C(N1CCN(C)CC1)Cc1ccccc1S2` (stereo unspecified): 15.1 µM; `COc1ccc(-c2oc3ccccc3c2C#Cc2cncn2C)cc1`: 4.37 µM.
With `Cc1cccc2[nH]c3c(N4CC=C(c5ccc(F)cc5)CC4)ncnc3c12`, the AC50 was 5.01 µM.
As for `COc1ccc(NS(=O)(=O)c2cccc(C(=O)N/N=C(\C)c3ccc(-n4ccnc4)cc3)c2)cc1`, the figure is > 19.5 µM (inactive); as for `Cc1nc(C2CCC3C4CCC5=CC(=O)CC[C@]5(C)C4CC[C@]23C)cs1` (stereo partly specified), 7.15 µM.
Regarding `Cc1cccc(NC(=S)N/N=C/c2ccc([N+](=O)[O-])s2)c1`, the AC50 is 6.78 µM.
Turning to `CCOC(=O)N1CCN(S(=O)(=O)c2ccc(C(=O)NNc3nc4cc(C)cc(C)c4s3)cc2)CC1`, the AC50 was 3.7 µM.
As for `CN(CCO)c1cc(Sc2nc3ccccc3s2)c2nonc2c1[N+](=O)[O-]`, the figure is 2.49 µM; as for `CCN1CCN(C(=S)Nc2sc(C)c(-c3ccccc3)c2C(=O)OC)CC1`, 4.72 µM.
As for `CCc1ccc2c(c1)[C@H]1OCC[C@H]1[C@@H](c1cccs1)N2`, the figure is 2.06 µM.
As for `COCCNC(=O)NC1(C(F)(F)F)Oc2ccc(Cl)cc2O1` (stereo unspecified), the AC50 is 17.6 µM.
For `CN(C)/N=C/C=C1\CCC/C(=C\c2ccc(F)c(F)c2)C1=O`, the AC50 is 10.5 µM.
Consider `CCC(C)Sc1ccc(-c2nc3cnccn3c2NC2CCCCC2)cc1` (stereo unspecified), for which the AC50 was 3.73 µM.
As for `CCCn1c(SCC#N)nc2c(c1=O)C1(CCCC1)Cc1ccccc1-2`, the concentration at half-maximal activity (AC50) was 1.52 µM.
For `CN(Cc1ccco1)c1ncnc2ccc(-c3ccc4c(ccn4C)c3)cc12`, the AC50 was 3.01 µM.
Consider `CN1CC(c2ccccc2)C2(SC(=S)N(Cc3ccco3)C2=O)C12C(=O)Nc1ccccc12` (stereo unspecified), for which the AC50 was 7.31 µM.
`C[C@]12CC[C@H](O)C[C@H]1CC[C@@H]1C2CC[C@]2(C)[C@@H](C3=CC(=O)OC3)[C@@H](O)C[C@]12O` (stereo partly specified): the AC50 is 1.55 µM.
As to `Cc1ccc(N=Nc2ccc(O)cc2)c(Br)c1`, the concentration at half-maximal activity (AC50) was 8.42 µM.
Next, `C[C@@H]1O[C@@H](O[C@@H]2C=C3CCC4C(CC[C@]5(C)[C@@H](c6ccc(=O)oc6)CC[C@]45O)[C@@]3(C)CC2)[C@H](O)[C@H](O)[C@H]1O` (stereo partly specified): under 0.16 µM.
Take `C=CCC[C@H](Cc1ccc(F)cc1)C(=O)O[C@H](CNC(=O)[C@@H](CC=C)CC(=O)N(CCO)Cc1ccccc1)c1ccccc1`: the AC50 is 7.4 µM.
Consider `COc1cccc(/C=C/c2ccc3ccccc3n2)c1OC(C)=O`, for which the AC50 is 11.7 µM.
Take `O=C(O)c1ccccc1C(=O)NNc1ccc(Cl)cc1`: the AC50 is 3.95 µM.
Regarding `COc1ccccc1-c1cc(C(F)(F)F)nc(S(C)(=O)=O)n1`, the AC50 is 6.13 µM.
Take `Cc1ccc(NNC(=O)c2cccs2)cc1Cl`: the AC50 is 2.19 µM.
As for `COc1cc(F)c(C2=CC(=O)C[C@H](c3ccc(Cl)cc3)C2)cc1F`, the figure is 3.48 µM.
For the compound `CN(CC(O)CON=C1c2ccccc2-c2ccccc21)S(=O)(=O)c1ccc(Br)cc1` (stereo unspecified), the AC50 is 4.4 µM.
On to `Cc1cc(SCC(=O)c2cccs2)n2nc(C)c(-c3ccc(Cl)cc3)c2n1`, for which the AC50 was 15.5 µM.
As for `O=C1[C@@H]2Cc3c([nH]c4ccccc34)C(c3cccc(Br)c3)N2C(=O)CN1C1CCN(Cc2ccccc2)CC1` (stereo partly specified), the figure is 7.12 µM; as for `O=C(c1cnc2ccc3ccccc3c2c1)c1cc(F)ccc1O`, 0.86 µM.
Consider `Cc1cccc(NC(=O)c2nc[nH]c2C(=O)N[C@@H](C)c2ccccc2)c1`, for which the AC50 is 12 µM.
In the case of `COc1ccc(-c2cc(C(F)(F)F)nc(S(C)(=O)=O)n2)cc1`, the AC50 is 3.56 µM.
With `CCOC(=O)c1sc(NC(=O)c2cc(-c3ccccc3C)nc3ccccc23)c(C#N)c1C`, the half-maximal activity concentration (AC50) is 5.17 µM.
Take `COc1ccc(Oc2c(Cl)cnn(-c3ccc(Cl)c(Cl)c3)c2=O)cc1`: the AC50 is 3.44 µM.
As to `Cn1cccc1-c1nc2ccccc2n1Cc1ccccc1`, the AC50 was 13.6 µM.
As to `Cc1ccc(C(C)C)c(OCc2nn(CC(=O)c3ccc(OC(F)F)cc3)c3[n+]2CCCCC3)c1`, the AC50 is 4.17 µM.
As for `OC(COc1ccc2ccccc2c1Br)Cn1cnc(-c2ccccc2)c1` (stereo unspecified), the figure is 6.05 µM.
As for `Cc1ccc(NC(=O)Cn2c(O)c(N=NC(=O)c3cc4ccccc4cc3O)c3ccccc32)cc1`, the AC50 is 3.92 µM.
Turning to `O=C(/C=C/c1ccc2c(c1)OCO2)NCCSCc1c(Cl)cccc1Cl`, the AC50 is 2 µM.
`Cc1ccc(C=Nc2ccccc2C(N)=O)s1`: the AC50 was 2.79 µM.
As for `C=C(C)COc1ccc(-c2n[nH]c(C)c2-c2ccc(OC)c(OC)c2)c(O)c1`, the figure is 2.65 µM.
Consider `Cc1ccc(C(=O)C(C(=O)/C=C/c2ccccc2)=C2SCCCS2)cc1`, for which the AC50 was 1.56 µM.
For the compound `Cc1ccc(C(=O)N/N=C\c2ccc(-c3ccc(Cl)c(Cl)c3)o2)cn1`, the AC50 is 5.54 µM.
Turning to `CN(C)CCCNc1ccc(-c2cc(Nc3cccc(Cl)c3)ncn2)cn1`, the AC50 is 4.8 µM.
Next, `CCN1C(=O)C(CC(=O)Nc2ccc(F)cc2)N(CCCN2CCN(c3ccc(F)cc3)CC2)C1=S` (stereo unspecified): 6.83 µM; `NCCc1ccc(OCc2ccccc2)c(OCc2ccccc2)c1`: 13.6 µM; `C[C@]12CCC(O)CC1CCC1C2CC[C@]2(C)C(c3cc(C(F)(F)F)n[nH]3)CCC12` (stereo partly specified): 1.78 µM.
In the case of `CC(C)c1cccc(C(C)C)c1OC(=O)[C@H]1OC(c2ccc(Br)cc2)=C[C@@H]1c1ccc(Br)cc1`, the AC50 is 4.64 µM.
As to `Cc1cc2oc(=O)c(CC(=O)NCCCN(C)C)c(C)c2c2occ(C(C)(C)C)c12`, the AC50 is 2.85 µM.
Take `Cc1cccc(NC(=O)c2ccc(COc3ccc(Cl)cc3Cl)o2)n1`: the AC50 is 3.38 µM.
Regarding `Cc1ccc(N2C(=O)NC(=O)/C(=C\C=C\c3ccco3)C2=O)cc1`, the AC50 was 4.54 µM.
`COc1ccccc1/C=C/C=N/n1c(-c2n[nH]c3c2CCC3)n[nH]c1=S`: the AC50 is 19.7 µM.
For `O=C(/C(N=Nc1cccc(C(F)(F)F)c1)=C(/O)c1cccs1)C(F)(F)F`, the AC50 is 2.17 µM.
Next, `COc1ccccc1C1c2ccc3ccccc3c2Oc2ncn(CCN(C)C)c(=N)c21` (stereo unspecified): 4.22 µM; `CCC(=O)NC(=S)Nc1cccc(Cl)c1N1CCCCC1`: 9.96 µM; `Cc1cc(N)n(-c2ccc(S(N)(=O)=O)cc2[N+](=O)[O-])n1`: > 19.5 µM (inactive).
Regarding `COc1ccc(C(=O)NNc2ccccc2)cc1OC`, the AC50 was 1.83 µM.
Take `CC(C)(C)OC(=O)N1CCC(NC(=O)c2[nH]cnc2C(=O)Nc2ccc(Cl)cc2)CC1`: the AC50 was 5.94 µM.
Turning to `COc1ccc(/C=C/C(=O)c2ccc(NS(=O)(=O)c3ccc(C)cc3)cc2)cc1O`, the AC50 was 3.56 µM.
Regarding `CC(C)(C)c1cc(NCc2ccccn2)n2ncc(-c3ccccc3)c2n1`, the AC50 is 6.85 µM.
Take `C[C@H]1[C@H](C)CC[C@]2(C)CC[C@]3(C)C(=CC(=O)C4[C@@]5(C)CC[C@H](O)C(C)(C)C5CC[C@]43C)[C@H]12` (stereo partly specified): the AC50 is 3.67 µM.
For `COc1ccc(OC)c(Nc2c3ccccc3nc3ccccc23)c1`, the AC50 was 2.7 µM.
Turning to `O=C(Nc1ccc(Oc2c(F)c(F)c(F)c(F)c2F)cc1)OC1CCN2Cc3ccccc3N=C12` (stereo unspecified), the half-maximal activity concentration (AC50) is 1.21 µM.
Turning to `CCN1CCN(CCCNC(=O)c2ccc(/C=C3/Sc4ccccc4N(Cc4ccccc4F)C3=O)cc2)CC1`, the AC50 was 3.14 µM.
On to `Cc1cc(SCC(=O)N/N=C/c2ccc(O)cc2O)nc2ccccc12`, for which the AC50 was 4.75 µM.
For the compound `O=C(/C=C/c1ccco1)NCC1OCCc2ccccc21` (stereo unspecified), the AC50 is > 19.5 µM (inactive).
As for `C=C(C)C1Cc2c(C)nn(-c3cccc4ccccc34)c2C1` (stereo unspecified), the AC50 is 7.55 µM.
In the case of `Cc1cc(C)c2c(c1)/C(=C/C(=O)c1ccc(Br)s1)C(=O)N2`, the AC50 is 5.47 µM.
Next, `O=C(c1ccccc1)c1c[nH]c(C(=O)NNc2ccccc2)c1`: 1.53 µM; `COc1ccc(-c2cc(C3CCN(c4ccc(C(C)=O)cc4[N+](=O)[O-])CC3)[nH]n2)cc1`: 8.83 µM; `O=C(Nc1ccncc1)c1cc(-c2cccc(Br)c2)nc2ccccc12`: 5.99 µM.
For the compound `Clc1ccc(N/N=C/c2cccnc2)cc1`, the AC50 is 7.94 µM.
As for `CC1CCN(CCCNC(=O)c2ccc3c(=O)n(Cc4ccc(Cl)cc4)c(=S)[nH]c3c2)CC1`, the AC50 is 5.33 µM.
As to `CCN1CCN(Cc2ccc(NC(=O)c3cc(NC(=O)c4cncc(-c5cccs5)c4)cc(OC)c3)cc2C(F)(F)F)CC1`, the AC50 was 3.52 µM.
In the case of `COc1ccc(CN2C(=O)c3cccnc3C2Nc2cc(Cl)ccc2OC)cc1` (stereo unspecified), the AC50 is > 19.5 µM (inactive).
Consider `Cc1cccc(NC(=S)NCC(C)CSc2ccc(Cl)cc2)c1` (stereo unspecified), for which the AC50 was 7.05 µM.
For the compound `CCCCCCSc1ccc([C@H]2N[C@@](C)(C(=O)OC)[C@H]3C(=O)N(CC)C(=O)[C@@H]23)cc1`, the AC50 is 19.8 µM.
As to `CCNC(=O)c1c(NC(=O)c2cc(-c3cc(C)ccc3O)n[nH]2)sc2c1CCCC2`, the AC50 was 4.99 µM.
For the compound `COc1ccc(-c2sc3ccccc3c2C#Cc2cncn2C)cc1`, the AC50 was 4.83 µM.
In the case of `CCc1cc(-c2n[nH]c(C)c2-c2ccccc2Cl)c(O)cc1OC`, the AC50 was 3.77 µM.
As to `COc1ccc(-c2cccc([C@H]3[C@@H]4C=CCC[C@@]4(C)C(=O)N3Cc3ccccc3)c2)cc1`, the AC50 was 7.45 µM.
